Patent publication EP0612246B1, “PHARMACEUTICAL COMPOSITIONS OF GALLIUM COMPLEXES OF 3-HYDROXY-4-PYRONES” (BERNSTEIN, Lawrence Richard, priority 1991, dated 1993)
One block for each compound: values may come before it.

Assays:
[1] = Oral bioavailability study in rabbits: serum gallium by graphite furnace atomic absorption after oral gavage; format: in vivo, New Zealand white rabbits; conditions: for Mean gallium content of rabbit serum: 10 mg elemental gallium per kg, fasted 18 hours, 3 animals
Experimental: A test of the oral bioavailability of the 3:1 ethyl maltol:gallium complex in rabbits was conducted. In this test, the complex was given to rabbits and compared to a solution of gallium nitrate. Six female New Zealand white rabbits weighing between 2.68 and 2.91 kg were used, and were not fed for 18 hours before starting the experiment. A suspension of the 3:1 gallium ethyl maltol complex in double distilled water was prepared with a concentration of 10 mg elemental gallium per 4 ml of suspension. […] A small amount of solid sodium carbonate was added to the latter solution to bring the pH up to about 6. Each of the two solutions was given to three rabbits by oral gavage (through a tube inserted through the mouth to the stomach) in the amount of 4 ml per kg of body weight. The stomach tubes were flushed by three ml of water following administration of the solutions.
Six ml of blood was taken from each rabbit at 1 hour, 2 hours, 4 hours, 8 hours, and 24 hours following administration of the solutions, and the serum separated and frozen. Control samples of blood were taken 24 hours earlier. The frozen serum samples were then sent to an independent testing laboratory for determination of the gallium contents by graphite furnace atomic absorption analysis. The testing laboratory received numbered serum samples, and never had any knowledge of the experimental conditions used to produce the samples. Due to uncertainties in the analytical procedures for gallium in serum, the relative proportions of gallium in the serum samples are considered more significant than the actual reported concentrations.
It is important to note that no attempt was made to counteract the adverse effects of the 3:1 gallium ethyl maltol complex being exposed to the acidic conditions of the stomach. This study should therefore be considered to give a minimal value for the oral bioavailability of the gallium ethyl maltol complex compared to gallium nitrate.

[2] = format: physicochemical
Experimental: The stability of the neutral 3:1 maltol:gallium complex was studied in aqueous solutions at various pH values. The complex was studied at two concentrations in double distilled deionized water: 2.5 X 10^-6 M and 1.0 X 10^-2 M. The pH was adjusted by adding either 1N HCl or 1N Na2CO3. The stability of the complex was determined using ultraviolet spectroscopy over the region 200-450 nm at 25°C. Several absorption peaks are observed in this range, including those at about 212-217 nm, 248 nm, 273 nm, 318 nm, and 385 nm. An isobesic point occurs over much of the pH range at about 290 nm. In the very dilute solutions (2.5 X 10^-6 M), the neutral 3:1 complex appears to be stable from about pH 4.5 to 9.5. For the less dilute solutions (1.0 X 10^-2 M), the determination was more difficult due to the very high absorbance.

- absorption compared to gallium nitrate of equal volume and gallium concentration ([1]; rabbit, in vivo, po): significantly higher amounts
Compound: CCc1occc(=O)c1[O][Ga]([O]c1c(CC)occc1=O)[O]c1c(CC)occc1=O [gallium ethyl maltol]

Compound: Cc1occc(=O)c1[O-].Cc1occc(=O)c1[O-].Cc1occc(=O)c1[O-].[Ga+3] [gallium maltol]
- stability region (pH) [2]: very similar to that of the highly dilute solution, possibly slightly wider

Compound: gallium nitrate
- Mean gallium content of rabbit serum ([1]; 1 hour after oral gavage): 51 ng/mL
- Mean gallium content of rabbit serum ([1]; 2 hours after oral gavage): 99 ng/mL
- Mean gallium content of rabbit serum ([1]; 4 hours after oral gavage): 118 ng/mL
- Mean gallium content of rabbit serum ([1]; 8 hours after oral gavage): 103 ng/mL
- Mean gallium content of rabbit serum ([1]; 24 hours after oral gavage): 64 ng/mL
